Data from BindingDB's records for doi:10.1016/s0006-2952(97)00631-x (Roche Bioscience, 1998).
pKi: −log10 of the molar value. “And” between values parts separate entries of the source, which are not always exact repeats. Equal entries are not always repeated.

Experiments:
[1] = molecular target: T1, Alpha-2A adrenergic receptor (Homo sapiens, UniProt P08913)
T1 sequence (P08913 whole entry): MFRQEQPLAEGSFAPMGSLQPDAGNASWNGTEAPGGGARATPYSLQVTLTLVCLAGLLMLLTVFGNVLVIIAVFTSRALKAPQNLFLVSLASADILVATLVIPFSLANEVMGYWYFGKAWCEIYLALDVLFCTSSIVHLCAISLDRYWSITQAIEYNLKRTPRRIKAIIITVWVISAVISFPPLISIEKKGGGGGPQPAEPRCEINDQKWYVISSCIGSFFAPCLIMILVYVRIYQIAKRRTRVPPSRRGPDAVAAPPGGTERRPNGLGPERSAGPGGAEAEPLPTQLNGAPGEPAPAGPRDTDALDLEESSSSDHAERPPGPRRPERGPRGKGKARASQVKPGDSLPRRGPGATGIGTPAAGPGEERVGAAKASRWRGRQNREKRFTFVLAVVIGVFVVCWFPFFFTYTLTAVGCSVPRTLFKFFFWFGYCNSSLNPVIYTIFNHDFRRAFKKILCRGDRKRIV

[2] = molecular target: T2, Alpha-2C adrenergic receptor (Homo sapiens, UniProt P18825)
T2 sequence (P18825 whole entry): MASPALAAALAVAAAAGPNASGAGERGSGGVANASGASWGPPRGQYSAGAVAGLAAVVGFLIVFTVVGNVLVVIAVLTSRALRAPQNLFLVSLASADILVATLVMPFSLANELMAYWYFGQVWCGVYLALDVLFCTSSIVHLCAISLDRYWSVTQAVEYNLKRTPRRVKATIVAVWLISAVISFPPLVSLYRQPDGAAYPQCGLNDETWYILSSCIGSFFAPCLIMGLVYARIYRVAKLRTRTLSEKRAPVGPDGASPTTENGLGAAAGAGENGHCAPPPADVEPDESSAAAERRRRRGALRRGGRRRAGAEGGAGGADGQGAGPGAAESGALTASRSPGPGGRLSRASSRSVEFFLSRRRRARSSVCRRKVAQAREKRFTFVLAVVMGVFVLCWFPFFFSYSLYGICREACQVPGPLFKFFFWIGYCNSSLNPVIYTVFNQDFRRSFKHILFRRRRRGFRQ

[3] = molecular target: T3, Alpha-2A adrenergic receptor (Mus musculus, UniProt Q1HL33)
T3 sequence (Q1HL33 whole entry): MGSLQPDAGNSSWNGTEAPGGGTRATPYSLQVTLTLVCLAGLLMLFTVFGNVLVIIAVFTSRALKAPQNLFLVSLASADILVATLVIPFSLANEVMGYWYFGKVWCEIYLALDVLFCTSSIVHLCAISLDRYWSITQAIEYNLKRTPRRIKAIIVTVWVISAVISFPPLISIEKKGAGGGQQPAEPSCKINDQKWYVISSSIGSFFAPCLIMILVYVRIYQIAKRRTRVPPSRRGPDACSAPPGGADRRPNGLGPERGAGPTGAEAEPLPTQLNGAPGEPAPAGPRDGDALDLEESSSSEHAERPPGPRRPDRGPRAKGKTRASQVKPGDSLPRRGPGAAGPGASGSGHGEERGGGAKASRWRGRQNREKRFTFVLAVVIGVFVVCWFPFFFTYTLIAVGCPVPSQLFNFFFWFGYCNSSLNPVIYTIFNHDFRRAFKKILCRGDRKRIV

CCn1ccnc1CC1COc2ccccc2O1 (centres undefined) [NSC_133621]
pKi [1]: 6.50 | pKi [2]: 6.82

C=CCN(C1=NCCN1)c1c(Cl)cccc1Cl [CAS_33178-86-8]
pKi [1]: 5.22 | pKi [2]: < 5.00

C1COC(NC(C2CC2)C2CC2)=N1 [rilmenidine]
pKi [1]: 5.80 | pKi [2]: 5.33 | pKi [3]: 6.14

Cc1cc(C(C)(C)C)c(O)c(C)c1CC1=NCCN1 [SMR000059324]
pKi [3]: 7.81 and 7.59

c1ccc2ccccc2c1 [naphtaline]
pKi [1]: 8.34 | pKi [2]: 8.48 | pKi [3]: 8.11 and 8.03

Cc1cc(C(C)(C)C)cc(C)c1CC1=NCCN1 [SMR000058526]
pKi [1]: 7.82 | pKi [2]: 6.89 | pKi [3]: 7.59 and 7.62

c1ccc2c(CC3=NCCN3)cccc2c1 [Naphazoline]
pKi [1]: 7.68 | pKi [2]: 6.39 | pKi [3]: 7.94 and 7.77

CC(C)NCC(O)c1ccc(O)c(O)c1 (stereo not drawn) [Isoproterenol,(+)]
pKi [3]: < 5.00

CC(N)C(O)c1ccc(O)c(O)c1 (stereo not drawn) [alpha-Methyl-(+/-)norepinephrine,(+/-)]
pKi [1]: 5.44 | pKi [2]: 5.54

Cc1cccc([C@@H](C)c2cnc[nH]2)c1C
pKi [2]: 7.02 | pKi [3]: 8.47

NCC(O)c1ccc(O)c(O)c1 (stereo not drawn) [Noradrenaline,(+)]
pKi [2]: 5.87 | pKi [3]: 5.85

CCc1cccc(CC)c1NC1=NCCN1 [ST 91]
pKi [1]: 6.24 | pKi [2]: 6.21 | pKi [3]: 6.27

Clc1cccc(Cl)c1N=C1NCCN1 [2-(2,6-dichloroanilino)-2-imidazoline]
pKi [3]: 7.39

CN1CCC2(CCN3CCc4c(oc5ccccc45)C3C2)N(C)C1=O (centres undefined) [MK-912]
pKi [1]: 9.07 | pKi [2]: 10.15

C[C@@H](Oc1c(Cl)cccc1Cl)C1=NCCN1 [CAS_81447-78-1]
pKi [2]: 6.76

Fc1cccc(Cl)c1C1CC2=NCCN2C1 (centres undefined) [CAS_67249-51-8]
pKi [1]: 8.10 | pKi [2]: 6.55

COC1(C2=NCCN2)COc2ccccc2O1 (centres undefined) [RX821002]
pKi [1]: 9.44 | pKi [2]: 9.10 | pKi [3]: 9.21

C=CCN1CCc2nc(N)sc2CC1 [B-HT 920]
pKi [1]: 6.40 | pKi [2]: 6.02

c1cc2c(c(NC3=NCCN3)c1)CCCC2
pKi [1]: 7.50 | pKi [2]: 6.56 | pKi [3]: 7.81

Cc1cccc(C)c1N=C1NCCCS1 [(5,6-Dihydro-4H-[1,3]thiazin-2-yl)-(2,6-dimethyl-phenyl)-amine]
pKi [1]: 5.24 | pKi [2]: < 5.00 | pKi [3]: 5.62

Nc1cc(Cl)c(N=C2NCCN2)c(Cl)c1 [p-AMINOCLONIDINE]
pKi [1]: 8.10 | pKi [2]: 7.67

Oc1ccc2c(c1O)CCC[C@@H]2C1=NCCN1 [A-54741]
pKi [2]: 6.11 | pKi [3]: 8.01

N=C(N)NC(=O)Cc1c(Cl)cccc1Cl [NSC_3519]
pKi [3]: 7.69
